Key:
[1] = test system: SREBP-1c protein; assay: SREBP-1c protein expression by western blotting, HepG2 cells; type: cell-based; details: 14-3-3 overexpression, 200 μM oleic acid 72 hours, FIG. 7D
Description: In addition, HepG2 cells were seeded in a 6-well plate at a density of 5×10^5 cells per each well, and then transfected with HA-14-3-3β DNA (1 μg) or HA-14-3-3γ DNA (1 μg) using an E-fection plus reagent (Lugen). A ratio of DNA to the E-fection plus reagent was 1:2, and this method was performed according to a manufacturer's manual. After transfection, the cells were treated with 200 μM of oleic acid (OA) for 72 hours, washed with ice-cold PBS, and lysed with 80 μl/well of a lysis buffer (150 mM NaCl, 1 mM EDTA, 1% Nonidet P-40, 5% glycerol, 25 mM tris-HCl, pH 7.5, protease inhibitor added), the lysed cells were centrifuged at 10,000×g and 4° C. for 10 minutes to extract proteins, and 30 μg of the proteins was separated on a 10% SDS-PAGE gel and identified using each of the antibodies (HA, SREBP-1c: Santa Cruz) by western blotting, and all antibodies were used in a ratio of 1:3000. To verify whether such regulation of mRNA expression of the target genes of PPARγ2 is the same as in the expression of a protein thereof, an expression amount of the SREBP-1c protein was checked by western blotting. As a result of the experiment, it was confirmed that the expression of the SREBP-1c protein was increased by the overexpression of 14-3-3β and reduced by the overexpression of 14-3-3γ (see FIG. 7D).

[2] = target: T1, PPAR-RXR complex (Homo sapiens, UniProt P37231); assay: Formation of PPAR-RXR complex under 14-3-3 overexpression; type: binding; details: overexpression of 14-3-3β and 14-3-3γ; FIG. 8C
T1 sequence (P37231 1-505): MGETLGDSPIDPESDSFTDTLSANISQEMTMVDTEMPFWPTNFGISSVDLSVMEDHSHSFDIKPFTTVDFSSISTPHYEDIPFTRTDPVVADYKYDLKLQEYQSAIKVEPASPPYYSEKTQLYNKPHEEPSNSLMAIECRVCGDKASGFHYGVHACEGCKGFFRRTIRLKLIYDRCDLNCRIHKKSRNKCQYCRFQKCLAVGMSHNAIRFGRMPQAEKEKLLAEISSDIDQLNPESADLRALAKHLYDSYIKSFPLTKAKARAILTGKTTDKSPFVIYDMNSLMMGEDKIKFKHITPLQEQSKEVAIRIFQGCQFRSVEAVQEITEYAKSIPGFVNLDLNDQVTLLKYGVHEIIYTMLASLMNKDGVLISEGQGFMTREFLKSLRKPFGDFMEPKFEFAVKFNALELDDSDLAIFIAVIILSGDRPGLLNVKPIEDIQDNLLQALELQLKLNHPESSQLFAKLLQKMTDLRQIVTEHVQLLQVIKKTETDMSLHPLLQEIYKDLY
T1 sequence (P19793 1-462 partner): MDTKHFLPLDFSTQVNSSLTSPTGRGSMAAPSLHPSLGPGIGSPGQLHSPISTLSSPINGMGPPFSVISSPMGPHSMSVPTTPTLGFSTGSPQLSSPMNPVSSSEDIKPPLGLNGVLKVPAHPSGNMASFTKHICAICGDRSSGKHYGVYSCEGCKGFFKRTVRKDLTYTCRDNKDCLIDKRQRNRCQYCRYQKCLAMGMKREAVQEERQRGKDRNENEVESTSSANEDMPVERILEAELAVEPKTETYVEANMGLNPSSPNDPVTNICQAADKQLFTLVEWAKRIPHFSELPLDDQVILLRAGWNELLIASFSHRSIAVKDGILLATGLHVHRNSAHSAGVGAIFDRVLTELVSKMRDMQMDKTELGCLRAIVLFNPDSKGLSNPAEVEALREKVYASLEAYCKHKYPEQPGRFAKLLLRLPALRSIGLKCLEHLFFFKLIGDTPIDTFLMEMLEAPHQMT

[3] = test system: HepG2 cells; assay: Oil Red-O lipid accumulation, HepG2 cells; type: cell-based; details: 14-3-3 overexpression, 200 μM oleic acid 72 hours, FIG. 9B
Description: HepG2 cells and primary mouse hepatocytes were separately seeded in a 6-well plate at a density of 4×10^5 cells per each well, and then transfected with GFP-14-3-3β DNA (1 μg) or GFP-14-3-3γ DNA (1 μg) and si-14-3-3β (10 μM, Santa Cruz) or si-14-3-3γ (10 μM, Santa Cruz) using an E-fection plus reagent (Lugen). A ratio of DNA to the E-fection plus reagent was 1:2, and this method was performed according to a manufacturer's manual. […] The stained cells were bleached with 1 ml of isopropanol and analyzed at a wavelength of 550 nm using a DU530 spectrophotometer (Beckman Instruments, Palo Alto, Calif.).

[4] = test system: HepG2 cells; assay: Triglyceride colorimetric assay, HepG2 cells; type: cell-based; details: 14-3-3 overexpression, 200 μM oleic acid 72 hours, FIG. 10A
Description: (§1) A triglyceride (neutral fat) is a type of fatty acid and is used as an index of a fat content. A biochemical lipid test was carried out by measuring an amount of triglycerides. HepG2 cells and primary mouse hepatocytes were separately seeded in a 6-well plate at a density of 4×10^5 cells per each well, and then transfected with GFP-14-3-3β DNA (1 μg) or GFP-14-3-3γ DNA (1 μg) and si-14-3-3β (10 μM, Santa Cruz) or si-14-3-3γ (10 μM, Santa Cruz) using an E-fection plus reagent (Lugen). A ratio of DNA to the E-fection plus reagent was 1:2, and this method was performed according to a manufacturer's manual. After transfection, the cells were treated with 200 μM of oleic acid (OA) for 72 hours, and the amount of triglycerides was measured using a triglyceride colorimetric assay kit (Cayman Chemical). The corresponding cells were washed with ice-cold PBS and then scraped using a standard diluent assay reagent, the scrapping process was repeated using a sonicator 20 times to lyse the cells, and the lysed cells were reacted with an enzyme buffer solution for 15 minutes, followed by measurement using an ELISA reader (Bio-Rad Laboratories, Inc) at a wavelength of 550 nm.

[5] = test system: primary mouse hepatocytes; assay: Triglyceride colorimetric assay, primary mouse hepatocytes; type: cell-based; details: primary mouse hepatocytes; 14-3-3 overexpression; 200 μM oleic acid 72 hours; FIG. 10A
Description: as §1

Substance | expression of the SREBP-1c protein [1] | formation of the PPAR-RXR complex [2] | lipid accumulation by oleic acid (Oil Red-O) [3] | triglyceride accumulation [4] | triglyceride accumulation [5]
14-3-3β: 14-3-3 isoform protein, overexpressed by DNA transfection; regulating factor that increases transcriptional activity of PPARγ2 | increased | did not affect the formation of the PPAR-RXR complex | increased lipid accumulation | further increased | further increased
14-3-3γ: 14-3-3 isoform protein, overexpressed by DNA transfection; regulating factor that decreases transcriptional activity of PPARγ2 | reduced | did not affect the formation of the PPAR-RXR complex | reduced lipid accumulation | reduced triglyceride accumulation | reduced triglyceride accumulation
